Experimental data taken from patent US20060287375A1 (priority 2003, published 2006).
Where two headings read alike, the source gives them in different places.

Assays:
Pyricularia oryzae [1] = type: in vivo; conditions: rice seedlings (Aichi Asahi), wettable powder sprayed at 500 ppm active ingredient, 10 ml per pot; examined 5 days after inoculation
Pyricularia oryzae [2] = type: in vivo; conditions: paddy rice (Aichi Asahi), wettable powder on water surface, 1,000 g active ingredient per 10 ares; inoculated 10 days after application, examined 5 days after inoculation
Pyricularia oryzae [3] = type: in vivo; conditions: rice (Aichi Asahi), granule applied to seedling-raising box, 12 g active ingredient per box; inoculated 40 days after application, examined 6 days after inoculation
Septoria nodorum = assay: Test for control effect on Septoria leaf spot of wheat; type: in vivo; conditions: wheat seedlings (Nohrin No. 61), wettable powder at 500 ppm, 10 ml per pot; examined 10 days after inoculation
Excerpt: Test for Control Effect on Septoria Leaf Spot of Wheat
In each of plastic pots of 6 cm in diameter were sown 10 wheat seeds (variety: Nohrin No. 61). They were allowed to germinate in a greenhouse. […] After air-drying, the seedlings were inoculated with pycnospores of Septoria nodorum and the pot was placed in a greenhouse. After 10 days from the inoculation, the total diseased area of all the first leaves in the pot was examined.

[4] = test system: Pseudoperonospora cubensis; conditions: cucumber seedlings (sagami hanjiro), wettable powder at 500 ppm, 15 ml per pot; examined 7 days later
Method: 10 cucumber seeds (variety: sagami hanjiro) were sown in each of vinyl chloride resin made pots of 9 cm×9 cm and were allowed to germinate in a greenhouse for 7 days. The resulting cucumber young seedlings which reached a cotyledon stage were used as a sample plant. […] The plant was air-dried and inoculated, by spraying, with a suspension of conidia of Pseudoperonospora cubensis. Immediately, the pot was placed in a wet house of 20° C. for 24 hours. Then, the pot was transferred into a greenhouse. 7 days later, the total diseased area of all the cotyledons in the pot was examined.

Erysiphe graminis = assay: Test for control effect on powdery mildew of wheat; type: in vivo; conditions: wheat seedlings (Nohrin No. 61), wettable powder at 500 ppm, 10 ml per pot; inoculated 7 days after application, examined 8 days after inoculation
Excerpt: Test for Control Effect on Powdery Mildew of Wheat
In each of plasic pots of 6 cm in diameter were sown 10 wheat seeds (variety: Nohrin No. 61). They were allowed to germinate in a greenhouse. […] After 7 days from the application, the seedlings were inoculated, by spraying, with conidia of Erysiphe graminis. After 8 days from the inoculation, the total infected area of all the first leaves in the pot was examined.

Structure (SMILES)	Evaluation (preventive value, number of lesions of the fourth leaf) (Pyricularia oryzae [1])	Evaluation (preventive value, number of lesions of the upper young leaf) (Pyricularia oryzae [2])	Evaluation (total diseased area of all the first leaves) (Septoria nodorum)	further results
CCOC(=O)N1C(=S)c2ccccc2S1(=O)=O [Compound No. 5, 2-ethoxycarbonyl-1,2-benzisothiazoline-3-thioxo-1,1-dioxide]	B (Less than 100 to 80.0 or more)	B (Less than 100 to 80.0 or more)	B (Less than 25% of untreated plot)	Evaluation (preventive value, number of lesions of the upper young leaf) (Pyricularia oryzae [3]): B (Less than 100 to 80.0 or more)
CC(C)N1C(=S)c2ccccc2S1(=O)=O [Compound No. 11]	–	B (Less than 100 to 80.0 or more)	–	–
O=S1(=O)c2ccccc2C(=S)N1CC=CCl [Compound No. 50]	–	–	B (Less than 25% of untreated plot)	Evaluation (total diseased area of all the cotyledons) [4]: B (Less than 25% of untreated plot)
C=CCOC1=NS(=O)(=O)c2ccccc21 [Probenazole, reference compound]	–	B (Less than 100 to 80.0 or more)	–	Evaluation (preventive value, number of lesions of the upper young leaf) (Pyricularia oryzae [3]): B (Less than 100 to 80.0 or more)
COCN1C(=S)c2ccccc2S1(=O)=O [compound 2]	B (Less than 100 to 80.0 or more)	B (Less than 100 to 80.0 or more)	–	Evaluation (preventive value, number of lesions of the upper young leaf) (Pyricularia oryzae [3]): B (Less than 100 to 80.0 or more); Evaluation (total infected area of all the first leaves) (Erysiphe graminis): B (Less than 25% of untreated plot); Evaluation (total diseased area of all the cotyledons) [4]: B (Less than 25% of untreated plot)
CCOCN1C(=S)c2ccccc2S1(=O)=O [compound 3, 2-ethoxymethyl-1,2-benzisothiazoline-3-thioxo-1,1-dioxide]	B (Less than 100 to 80.0 or more)	B (Less than 100 to 80.0 or more)	–	Evaluation (preventive value, number of lesions of the upper young leaf) (Pyricularia oryzae [3]): B (Less than 100 to 80.0 or more)
CCCOC(=O)N1C(=S)c2ccccc2S1(=O)=O [compound 6]	A (100)	B (Less than 100 to 80.0 or more)	B (Less than 25% of untreated plot)	Evaluation (total diseased area of all the cotyledons) [4]: B (Less than 25% of untreated plot)
C=CCOC(=O)N1C(=S)c2ccccc2S1(=O)=O [compound 7]	B (Less than 100 to 80.0 or more)	B (Less than 100 to 80.0 or more)	B (Less than 25% of untreated plot)	–
C#CCOC(=O)N1C(=S)c2ccccc2S1(=O)=O [compound 8]	B (Less than 100 to 80.0 or more)	B (Less than 100 to 80.0 or more)	–	Evaluation (total infected area of all the first leaves) (Erysiphe graminis): B (Less than 25% of untreated plot)
CC(C)COC(=O)N1C(=S)c2ccccc2S1(=O)=O [compound 9]	B (Less than 100 to 80.0 or more)	B (Less than 100 to 80.0 or more)	B (Less than 25% of untreated plot)	Evaluation (total diseased area of all the cotyledons) [4]: B (Less than 25% of untreated plot)
O=C(Oc1ccc(Cl)cc1)N1C(=S)c2ccccc2S1(=O)=O [compound 10]	–	B (Less than 100 to 80.0 or more)	B (Less than 25% of untreated plot)	–
CSCN1C(=S)c2ccccc2S1(=O)=O [compound 17]	–	B (Less than 100 to 80.0 or more)	–	–
N#CCN1C(=S)c2ccccc2S1(=O)=O [compound 19]	–	B (Less than 100 to 80.0 or more)	–	–
O=[N+]([O-])CN1C(=S)c2ccccc2S1(=O)=O [compound 20]	–	B (Less than 100 to 80.0 or more)	–	–
CC(=O)N1C(=S)c2ccccc2S1(=O)=O [compound 22]	–	B (Less than 100 to 80.0 or more)	–	–
COC(=O)N1C(=S)c2ccccc2S1(=O)=O [compound 23]	–	B (Less than 100 to 80.0 or more)	–	–
CC(C)OC(=O)N1C(=S)c2ccccc2S1(=O)=O [compound 24]	–	B (Less than 100 to 80.0 or more)	–	–

Structure (SMILES)	Evaluation (preventive value, number of lesions of the fourth leaf) (Pyricularia oryzae [1])	Evaluation (preventive value, number of lesions of the upper young leaf) (Pyricularia oryzae [2])	Evaluation (total diseased area of all the first leaves) (Septoria nodorum)	further results
O=C(Oc1ccccc1)N1C(=S)c2ccccc2S1(=O)=O [compound 25]	–	B (Less than 100 to 80.0 or more)	–	–
CCC(=O)N1C(=S)c2ccccc2S1(=O)=O [compound 27]	B (Less than 100 to 80.0 or more)	–	–	–
O=S1(=O)c2ccccc2C(=S)N1C1CCCC1 [compound 29]	–	–	B (Less than 25% of untreated plot)	–
O=C(OCCCl)N1C(=S)c2ccccc2S1(=O)=O [compound 30]	B (Less than 100 to 80.0 or more)	–	B (Less than 25% of untreated plot)	–
CCCCOC(=O)N1C(=S)c2ccccc2S1(=O)=O [compound 31]	–	B (Less than 100 to 80.0 or more)	B (Less than 25% of untreated plot)	–
O=[N+]([O-])CCN1C(=S)c2ccccc2S1(=O)=O [compound 39]	B (Less than 100 to 80.0 or more)	B (Less than 100 to 80.0 or more)	B (Less than 25% of untreated plot)	–
CC(C[N+](=O)[O-])N1C(=S)c2ccccc2S1(=O)=O (stereo not drawn) [compound 40]	B (Less than 100 to 80.0 or more)	B (Less than 100 to 80.0 or more)	B (Less than 25% of untreated plot)	–
CCOC(=O)C(C(=O)OCC)N1C(=S)c2ccccc2S1(=O)=O [compound 42]	–	–	–	Evaluation (total diseased area of all the cotyledons) [4]: B (Less than 25% of untreated plot)
CON1C(=S)c2ccccc2S1(=O)=O [compound 43, 2-methoxy-1,2-benzisothiazoline-3-thioxo-1,1-dioxide]	B (Less than 100 to 80.0 or more)	B (Less than 100 to 80.0 or more)	–	–
O=S1(=O)c2ccccc2C(=S)N1CBr [compound 44, 2-bromomethyl-1,2-benzisothiazoline-3-thioxo-1,1-dioxide]	B (Less than 100 to 80.0 or more)	B (Less than 100 to 80.0 or more)	B (Less than 25% of untreated plot)	–
O=S1(=O)c2ccccc2C(=S)N1CCl [compound 45]	A (100)	B (Less than 100 to 80.0 or more)	–	–
O=C(OCN1C(=S)c2ccccc2S1(=O)=O)c1ccccc1 [compound 46, 2-benzoyloxymethyl-1,2-benzisothiazoline-3-thioxo-1,1-dioxide]	B (Less than 100 to 80.0 or more)	B (Less than 100 to 80.0 or more)	–	–
O=C(OCN1C(=S)c2ccccc2S1(=O)=O)c1cc(Cl)nc(Cl)c1 [compound 47]	–	B (Less than 100 to 80.0 or more)	–	Evaluation (preventive value, number of lesions of the upper young leaf) (Pyricularia oryzae [3]): B (Less than 100 to 80.0 or more)
N#CSCN1C(=S)c2ccccc2S1(=O)=O [compound 48]	B (Less than 100 to 80.0 or more)	–	B (Less than 25% of untreated plot)	Evaluation (total diseased area of all the cotyledons) [4]: B (Less than 25% of untreated plot)
Cc1nnsc1C(=O)OCN1C(=S)c2ccccc2S1(=O)=O [compound 49]	B (Less than 100 to 80.0 or more)	–	–	–
COCCN1C(=S)c2ccccc2S1(=O)=O [compound 53]	–	–	–	Evaluation (total diseased area of all the cotyledons) [4]: B (Less than 25% of untreated plot)
